In PubChem BioAssay AID485374 (Sanford-Burnham Center for Chemical Genomics, 2010):
Where “and” joins values, the source holds several entries; their conditions need not be identical. Identical values can stand only once. Calls of active or inactive are those of the source. No rule for the calls is given here.

experiment: inhibitors of enzymatic SUMO conjugation, SAR follow-up, biochemical, AlphaScreen (AID 485374); conditions: AlphaScreen biochemical SUMOylation assay

SMILES | IC50
COC(=O)C1=C(C(=O)O)C2C=CC1([C@@H](Cc1ccccc1)Nc1ccccc1)O2 (some centres not stated) | 2.87 µM
COc1ccc2c(c1)C(NC(C)=O)C(=O)N2CCc1ccccc1 (configuration not stated) | > 100 µM (inactive)
N#Cc1c(NC(=O)c2ccccc2Cl)n(C2CCCCC2)c2nc3ccccc3nc12 | 1.95 µM
COC(=O)C1=C(C(=O)OC)C2([C@H](C)Nc3ccccc3)C=CC1O2 (some centres not stated) | 23.9 µM
CCCCn1c(NC(=O)c2ccc(F)cc2)c(S(=O)(=O)c2ccc(C)cc2)c2nc3ccccc3nc21 | 6.24 µM
C=CC[C@@H](Nc1ccc(C)cc1)C12C=CC(O1)C(C(=O)OC)=C2C(=O)OC (some centres not stated) | 12.4 µM
N#Cc1c(NC(=O)c2ccccc2Cl)n(Cc2ccccc2)c2nc3ccccc3nc12 | 2.44 µM
CCCCn1c(NC(=O)C2CCCCC2)c(C#N)c2nc3ccccc3nc21 | 2.39 µM
CCCCn1c(NC(=O)c2ccccc2Cl)c(C#N)c2nc3ccccc3nc21 | 20.1 µM
CCC(=O)Nc1c(S(=O)(=O)c2ccccc2)c2nc3ccccc3nc2n1Cc1ccccc1 | 43.4 µM
CCCCn1c(NC(C)=O)c(C#N)c2nc3ccccc3nc21 | 8.11 µM
CCCCn1c(NC(=O)c2ccc(F)cc2)c(C#N)c2nc3ccccc3nc21 | 0.757 µM
CCCCn1c(NC(=O)c2ccccc2Cl)c(S(=O)(=O)c2ccccc2)c2nc3ccccc3nc21 | 5.63 µM
CCCCn1c(N)c(C#N)c2nc3ccccc3nc21 | 13.3 µM
COc1ccc2c(c1)C(=O)C(=O)N2CCN1CCOCC1 | 76.8 µM
COCCNC(=O)c1c(NC(=O)c2ccccc2)n(Cc2ccccc2)c2nc3ccccc3nc12 | 51.3 µM
C=CC[C@H](Nc1ccccc1)C12C=CC(O1)C(C(=O)OC)=C2C(=O)OC (some centres not stated) | 5.95 µM
COC(=O)C1=C(C(=O)OC)C2([C@H](Cc3ccccc3)Nc3ccc(OC)cc3)C=CC1O2 (some centres not stated) | 13 µM
COc1cc(/C=C2\C(=O)N(c3ccccc3)N=C2C)ccc1OC(=O)c1cccs1 | 15.8 µM
CC(=O)NC1C(=O)N(CCN2CCOCC2)c2ccc(C)cc21 (configuration not stated) | > 100 µM (inactive)
CCCCn1c(NC(=O)c2ccco2)c(S(=O)(=O)c2ccc(C)cc2)c2nc3ccccc3nc21 | 7.9 µM
COC(=O)C1=C(C(=O)OC)C2([C@@H](Cc3ccccc3)Nc3ccc(C)cc3)C=CC1O2 (some centres not stated) | 2.96 µM
C=CC[C@@H](Nc1ccccc1)C12C=CC(O1)C(C(=O)OC)=C2C(=O)OC (some centres not stated) | 1.8 µM
C=CC[C@H](Nc1ccc(OC)cc1)C12C=CC(O1)C(C(=O)OC)=C2C(=O)OC (some centres not stated) | 17.7 µM
CCCCn1c(NC(=O)CC)c(S(=O)(=O)c2ccc(C)cc2)c2nc3ccccc3nc21 | 33.1 µM
CCCCn1c(NC(=O)c2ccccc2)c(S(=O)(=O)c2ccc(C)cc2)c2nc3ccccc3nc21 | 9.52 µM and 6.5 µM

SMILES | IC50
Nc1c(C(=O)NCc2ccco2)c2nc3ccccc3nc2n1Cc1ccccc1 | 41.2 µM
c1ccc(CC(Nc2ccccc2)c2ccco2)cc1 (configuration not stated) | > 100 µM (inactive)
COC(=O)C1=C(C(=O)OC)C2([C@@H](Cc3ccccc3)Nc3ccccc3)C=CC1O2 (some centres not stated) | 0.329 µM
COC(=O)C1=C(C(=O)OC)C2([C@H](C)Nc3ccc(Cl)cc3)C=CC1O2 (some centres not stated) | 11.5 µM
CCC[C@@H](Nc1ccccc1)C12C=CC(O1)C(C(=O)OC)=C2C(=O)OC (some centres not stated) | 0.533 µM
COCCn1c(NC(=O)c2ccc(Cl)cc2)c(S(=O)(=O)c2ccc(C)cc2)c2nc3ccccc3nc21 | 6.59 µM
CCCC1=NN(c2ccccc2)C(=O)/C1=C\c1ccc(O)cc1 | 19.2 µM
CCC[C@H](Nc1ccccc1)C12C=CC(O1)C(C(=O)OC)=C2C(=O)OC (some centres not stated) | 2.87 µM
COC(=O)C1=C(C(=O)OC)C2([C@@H](Cc3ccccc3)Nc3ccc(Cl)cc3)C=CC1O2 (some centres not stated) | 0.713 µM
COC(=O)C1=C(C(=O)OC)C2([C@@H](C)Nc3ccc(C)cc3)C=CC1O2 (some centres not stated) | 35.1 µM
COc1cc(/C=C2\C(=O)N(c3ccccc3)N=C2C)ccc1O | 21.1 µM and 25.5 µM
C=CC[C@H](Nc1ccc(C)cc1)C12C=CC(O1)C(C(=O)OC)=C2C(=O)OC (some centres not stated) | 11.7 µM
COC(=O)[C@@H]1C2CCC([C@@H](Cc3ccccc3)Nc3ccccc3)(O2)[C@@H]1C(=O)OC (some centres not stated) | > 100 µM (inactive)
COC(=O)C1=C(C(=O)OC)C2(C(Cc3ccc(OC(F)(F)F)cc3)Nc3ccccc3)C=CC1O2 (configuration not stated) | 0.611 µM
COc1ccc2c(c1)C(NC(C)=O)C(=O)N2CC1COc2ccccc2O1 (configuration not stated) | 66.3 µM
CCCN1C(=O)C(NC(C)=O)c2cc(OC)ccc21 (configuration not stated) | > 100 µM (inactive)
COC(=O)C1=C(C(=O)OC)C2(C(Cc3ccc(F)cc3)Nc3ccccc3)C=CC1O2 (configuration not stated) | 0.527 µM
COc1ccc2c(c1)C(NC(C)=O)C(=O)N2CCN1CCOCC1 (configuration not stated) | 5.02 µM
CCCCn1c(NC(=O)c2ccco2)c(C#N)c2nc3ccccc3nc21 | 3.45 µM
COC(=O)C1=C(C(=O)OC)C2([C@@H](C)Nc3ccc(OC)cc3)C=CC1O2 (some centres not stated) | 55.6 µM
C=CC[C@@H](N(Cc1ccccc1)/C(=C\C(=O)OC)C(=O)OC)C12C=CC(O1)C(C(=O)OC)=C2C(=O)OC (some centres not stated) | 21.3 µM
COC(=O)C1=C(C(=O)OC)C2([C@@H](Cc3ccccc3)Nc3ccc(OC)cc3)C=CC1O2 (some centres not stated) | 4.87 µM
COc1ccc2c(c1)C(NC(C)=O)C(=O)N2CCOc1ccccc1 (configuration not stated) | 70.2 µM
C=CCC(c1ccco1)N(Cc1ccccc1)/C(=C/C(=O)OC)C(=O)OC (configuration not stated) | > 100 µM (inactive)
COC(=O)C1=C(C(=O)OC)C2([C@@H](C)Nc3ccccc3)C=CC1O2 (some centres not stated) | 7.79 µM
CCCCn1c(NC(=O)c2ccc(OC)cc2)c(S(=O)(=O)c2ccc(C)cc2)c2nc3ccccc3nc21 | 8.08 µM

SMILES | IC50
CCCCCn1c(NC(=O)c2ccco2)c(C(=O)OCC)c2nc3ccccc3nc21 | 4.9 µM
CCCCn1c(N)c(S(=O)(=O)c2ccc(C)cc2)c2nc3ccccc3nc21 | > 100 µM (inactive)
COC(=O)C1=C(C(=O)OC)C2([C@@H](C)Nc3ccc(Cl)cc3)C=CC1O2 (some centres not stated) | 18.2 µM
CCCCn1c(NC(=O)c2ccc(Cl)cc2)c(C#N)c2nc3ccccc3nc21 | 2.1 µM
COC(=O)C1=C(C(=O)OC)C2([C@@H](Cc3ccc(OC)cc3)Nc3ccccc3)C=CC1O2 (some centres not stated) | 0.614 µM
COc1ccc(CN2C(=O)C(NC(C)=O)c3ccccc32)cc1 (configuration not stated) | > 100 µM (inactive)
COC(=O)C1=C(C(=O)OC)C2([C@@H](Cc3ccc(C)cc3)Nc3ccccc3)C=CC1O2 (some centres not stated) | 0.369 µM
C=CC[C@@H](Nc1ccc(Cl)cc1)C12C=CC(O1)C(C(=O)OC)=C2C(=O)OC (some centres not stated) | 3.84 µM
C=C[C@H](Nc1ccccc1)C12C=CC(O1)C(C(=O)OC)=C2C(=O)OC (some centres not stated) | 10.4 µM
COC(=O)C1=C(C(=O)OC)C2([C@H](Cc3ccccc3)Nc3ccccc3)C=CC1O2 (some centres not stated) | 5.04 µM
COC(=O)C1=C(C(=O)OC)C2([C@H](Cc3ccccc3)Nc3ccc(Cl)cc3)C=CC1O2 (some centres not stated) | 2.56 µM
C=C[C@@H](Nc1ccccc1)C12C=CC(O1)C(C(=O)OC)=C2C(=O)OC (some centres not stated) | 7.23 µM
S=c1[nH]nc(-c2cc(-c3ccccc3)n[nH]2)n1N=Cc1ccc(Br)s1 | 2.07 µM
COC(=O)C1=C(C(=O)OC)C2([C@H](Cc3ccc(C)cc3)Nc3ccccc3)C=CC1O2 (some centres not stated) | 2.19 µM
Cc1cc(C)c2c(c1)C(=O)C(=O)N2CCN1CCOCC1 | > 100 µM (inactive)
C=CC[C@@H](Nc1ccc(OC)cc1)C12C=CC(O1)C(C(=O)OC)=C2C(=O)OC (some centres not stated) | 22.3 µM
COc1cc(/C=C2\C(=O)N(c3ccccc3)N=C2C)ccc1OCc1ccccc1 | > 100 µM (inactive)
CCCCn1c(NC(=O)c2ccccc2)c(C#N)c2nc3ccccc3nc21 | 2.93 µM and 1.2 µM
CCCCNC(=O)c1c(NC(=O)c2ccccc2)n(Cc2ccccc2)c2nc3ccccc3nc12 | 91.1 µM
COC(=O)C=C(NC(CO)(CO)CO)C(=O)OC | > 100 µM (inactive)
CCCCn1c(NC(=O)c2cccc(Cl)c2)c(C#N)c2nc3ccccc3nc21 | 1.62 µM
C=CCC(Nc1ccccc1)C12C=CC(O1)C(C(=O)OC)=C2C(=O)OC (configuration not stated) | 1.36 µM
C=CC[C@H](N(Cc1ccccc1)/C(=C\C(=O)OC)C(=O)OC)C12C=CC(O1)C(C(=O)OC)=C2C(=O)OC (some centres not stated) | 15.1 µM
COC(=O)C1=C(C(=O)OC)C2([C@H](Cc3ccccc3)Nc3ccc(C)cc3)C=CC1O2 (some centres not stated) | 7.19 µM
C=CC[C@H](Nc1ccc(Cl)cc1)C12C=CC(O1)C(C(=O)OC)=C2C(=O)OC (some centres not stated) | 4.18 µM
